Three compounds from patent US10173968B2, “Bishydrazone-based antifungal agents” (University of Kentucky Research Foundation, priority 2016, dated 2019) can be followed below.

Values after ≈ are worked out from the molar mass of the structure shown. Where two headings read alike, the source gives them in different places.

One experiment deals with B. subtilis 168. Briefly: Antibacterial MIC, double-dilution method. The class given is cell-based. The settings on record: Bacillus subtilis, strain A, Gram-positive. Summed up:
(§1)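 Step one: single-point test of each compound at 500 μM. Step two: MIC determination across doubling dilutions.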

For the next experiment, the system named is E. coli MC1061. Briefly: Antibacterial MIC, double-dilution method. The class given is cell-based. The conditions noted are these: Escherichia coli, strain G, Gram-negative, read-out: MIC. The procedure, abridged:
as §1

The subject of a further experiment is MRSA. Briefly: Antibacterial MIC, double-dilution method. The class given is cell-based. The conditions noted are these: Staphylococcus aureus, strain C, Gram-positive, read-out: MIC. Summed up: as §1
The next experiment deals with M. smegmatis MC2-155. Briefly: Antibacterial MIC, double-dilution method. The class given is cell-based. The conditions noted are these: Mycolicibacterium smegmatis, MC2155, strain K, mycobacterial, read-out: MIC. The procedure, abridged: as §1
A further experiment deals with K. pneumoniae ATCC 27736. Briefly: Antibacterial MIC, double-dilution method. The class given is cell-based. The conditions noted are these: Klebsiella pneumoniae, ATCC27736, strain H, Gram-negative, read-out: MIC. The procedure, abridged:
as §1

A further experiment relates to P. aeruginosa ATCC 27853. Briefly: Antibacterial MIC, double-dilution method. The class given is cell-based. The settings on record: Pseudomonas aeruginosa, ATCC27853, strain I, Gram-negative, read-out: MIC. The procedure, abridged: as §1
Another experiment concerns S. enterica ATCC 14028. Briefly: Antibacterial MIC, double-dilution method. The class given is cell-based. The settings on record: Salmonella enterica, ATCC14028, strain J, Gram-negative, read-out: MIC. The procedure, abridged: as §1
The test system of experiment [1] is L. monocytogenes ATCC 19115. Briefly: Antibacterial MIC, double-dilution method. The class given is cell-based. The conditions noted are these: Listeria monocytogenes, ATCC19115, strain B, Gram-positive, read-out: MIC. Summed up:
as §1

In the next experiment the test system is VRE. Briefly: Antibacterial MIC, double-dilution method. The class given is cell-based. The conditions noted are these: Enterococcus, strain D, Gram-positive, read-out: MIC. The procedure, abridged:
as §1

Experiment [2] concerns P. aeruginosa ATCC 27853 (strain I). The class given is cell-based. The conditions noted are these: for development of resistance (passages after which resistance developed): up to 15 passages. How it is done: (§2) The bacteria were grown in MH broth at 37° C. for these experiments. […] The resulting cultures were diluted 1:1000 and grown until the culture reached ˜300,000 cfu/mL. That culture was then further diluted 1:1000 and used to determine the next round of MIC values.

The test system of the next experiment is C. albicans ATCC 64124. Briefly: Antifungal MIC, CLSI M27-A3 microbroth dilution. The class given is cell-based, Candida albicans. The conditions noted are these: Candida albicans, ATCC64124; C. albicans ATCC 64124, resistant to FLC, ITC, and VOR; converted from μg/mL; read-out: MIC. The method, then:
(§3) In vitro MIC testing was performed according to the CLSI M27-A3 standard microbroth dilution methodology for the susceptibility testing of yeasts with minor modifications.

The next experiment relates to C. albicans ATCC 1237. Briefly: Antifungal MIC, CLSI M27-A3 microbroth dilution. The class given is cell-based, Candida albicans. The conditions noted are these: Candida albicans, ATCC1237, C. albicans ATCC 1237, resistant to FLC, ITC, and VOR; converted from μg/mL; read-out: MIC. How it is done: as §3
Another experiment deals with C. albicans ATCC 2876. Briefly: Antifungal MIC, CLSI M27-A3 microbroth dilution. The class given is cell-based, Candida albicans. The settings on record: Candida albicans, ATCC2876; C. albicans ATCC 2876, susceptible to FLC, ITC, and VOR; converted from μg/mL; read-out: MIC. The method, then: as §3
A further experiment deals with C. albicans ATCC 1003. Briefly: Antifungal MIC, CLSI M27-A3 microbroth dilution. The settings on record: Candida albicans, ATCC1003; C. albicans ATCC 1003; converted from μg/mL; read-out: MIC. The class given is cell-based, Candida albicans. How it is done:
as §3

Another experiment relates to C. albicans ATCC 2310. Briefly: Antifungal MIC, CLSI M27-A3 microbroth dilution. The class given is cell-based, Candida albicans. The settings on record: Candida albicans, ATCC2310; C. albicans ATCC 2310, susceptible to FLC, ITC, and VOR; converted from μg/mL; read-out: MIC. The method, then: as §3
A further experiment has as its system C. albicans ATCC 90819. Briefly: Antifungal MIC, CLSI M27-A3 microbroth dilution. The class given is cell-based, Candida albicans. The settings on record: Candida albicans, ATCC90819; C. albicans ATCC 90819, resistant to FLC, ITC, and VOR; converted from μg/mL; read-out: MIC. How it is done:
as §3

In experiment [3] the test system is C. albicans ATCC 10231. Briefly: Antifungal MIC, CLSI M27-A3 microbroth dilution. The class given is cell-based, Candida albicans. The conditions noted are these: Candida albicans, ATCC10231, C. albicans ATCC 10231, resistant to FLC, ITC, and VOR, read-out: MIC. How it is done: as §3
Another experiment concerns VRE (strain D). The class given is cell-based, enterococcus. The settings on record: for development of resistance (passages after which resistance developed): up to 15 passages. The method, then:
as §2

The subject of another experiment is MRSA (strain C). The class given is cell-based, Staphylococcus aureus. The conditions noted are these: for development of resistance (passages after which resistance developed): up to 15 passages. The method, then: as §2
Experiment [4] has as its system L. monocytogenes ATCC 19115 (strain B). The class given is cell-based, Listeria monocytogenes. The conditions noted are these: for development of resistance (passages after which resistance developed): up to 15 passages. How it is done: as §2
For experiment [5], the system named is C. albicans strains (panel of seven). Briefly: Antifungal MIC, summary over the panel. The class given is cell-based, Candida albicans. The procedure, abridged: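 MIC endpoints were read by eye and taken as the minimum compound concentration producing complete inhibition compared with untreated growth. Testing followed the CLSI M27-A3 yeast microdilution standard, slightly modified.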

Experiment [6] concerns C. albicans ATCC 10231. The class given is cell-based, Candida albicans.
Experiment [7] relates to C. albicans ATCC 10231. Briefly: Intracellular ROS production, DCFH-DA fluorescence assay. The class given is cell-based, Candida albicans. The settings on record: 1 h at 35° C. The text has this: We used the 2′,7′-dichlorodihydrofluorescein diacetate (DCFH-DA) dye as a probe to measure the production of ROS in yeast cells upon treatment with our compounds. DCFH-DA can easily cross the cell membranes and be hydrolyzed by cellular esterases to the non-fluorescent 2′,7′-dichlorodihydrofluorescein (DCFH), which can further be oxidized to the highly fluorescent 2′,7′-dichlorofluorescein (DCF) by the intracellular ROS. Five mL of RPMI 1640 medium were inoculated using a single colony of C. albicans ATCC 10231 (strain A) in a Falcon tube and grown overnight at 35° C. at 200 rpm. The overnight culture was diluted by adding 200 μL of yeast cells to 800 μL of the same medium. […] H2O2 at 1 mM was also used as a positive control. Cells were centrifuged and washed twice with PBS buffer (pH 7.2). Cells were resuspended in the same buffer and incubated with DCFH-DA (20 μg/mL) for 30 min in the dark. Afterwards, cells were centrifuged and washed with PBS buffer to remove excess DCFH-DA. Glass slides with 10-15 μL of each mixture were prepared and observed in bright field and fluorescence modes (FITC filter set, excitation and emission wavelengths of 488 and 512 nm, respectively) using a Zeiss Axovert 200M fluorescence microscope (FIG. 3).

Another experiment deals with E. cloacae ATCC 13047. Briefly: Antibacterial MIC, double-dilution method. The class given is cell-based. The settings on record: Enterobacter cloacae, ATCC13047, strain F, Gram-negative, read-out: MIC. The procedure, abridged:
as §1

The subject of experiment [8] is all bacterial strains tested. Briefly: Antibacterial MIC, summary over the panel. The class given is cell-based. The conditions noted are these: read-out: MIC, span over all bacterial strains tested. How it is done:
MIC values were determined against a variety of Gram-positive (strains A-D) and Gram-negative (E-J) bacterial and mycobacterial (K) strains using the double-dilution method, as previously published. Preliminary screening was performed using 500 μM of each compound.

Where [9] appears, read: after 15 serial passages at sub-inhibitory concentrations.

On to `C/C(=N\NC(=N)N)c1ccc2c(c1)Cc1cc(/C(C)=N/NC(=N)N)ccc1-2.Cl.Cl` [Compound 4F, (2E,2′E)-2,2′-((9H-Fluorene-2,7-diyl)bis(ethan-1-yl-1-ylidene))bis(hydrazine-1-carboximidamide) dihydrochloride], for which the MIC with B. subtilis 168 (converted from μM) is 3.4 µg/mL; against B. subtilis 168 (range 0.5 to 500 μM), 7.8 µM; in the experiment with E. coli MC1061 (converted from μM), 218 µg/mL; in the experiment on E. coli MC1061 (range 0.5 to 500 μM), 500 µM; with MRSA (converted from μM), 0.4 to 0.9 µg/mL; in the experiment with MRSA (range 0.5 to 500 μM), 1 to 2 µM. The MIC with M. smegmatis MC2-155 (converted from μM) is 0.4 µg/mL; in the experiment on K. pneumoniae ATCC 27736 (converted from μM), 13.6 to 27.2 µg/mL; with K. pneumoniae ATCC 27736 (range 0.5 to 500 μM) it was 31.3 to 62.5 µM; in the experiment on P. aeruginosa ATCC 27853 (converted from μM) it was 0.4 to 0.9 µg/mL; in the experiment with P. aeruginosa ATCC 27853 (range 0.5 to 500 μM) it was 1 to 2 µM; in the experiment with S. enterica ATCC 14028 (converted from μM), 1.7 µg/mL. In addition, the MIC is 3.9 µM in the experiment with S. enterica ATCC 14028 (range 0.5 to 500 μM); less than 0.2 µg/mL in [1] (converted from μM); less than 0.5 µM in experiment [1] (range 0.5 to 500 μM); 0.4 µg/mL with VRE (converted from μM); 2.3 µM in the experiment with C. albicans ATCC 64124; 4.6 µM with C. albicans ATCC 1237. The MIC with C. albicans ATCC 2876 is 2.3 µM; in the experiment on C. albicans ATCC 1003, 2.3 µM; in the experiment with C. albicans ATCC 2310, 2.3 µM; in the experiment on C. albicans ATCC 90819, 4.6 µM; with C. albicans ATCC 10231 [3] (converted from μg/mL) it was 2.3 to 4.6 µM; with C. albicans ATCC 10231 [3] it was 1 to 2 µg/mL. For the same compound, in [5] (Candida albicans, all, most or majority of the fungal strains, read-out: MIC, span over C. albicans strains), the MIC lay within 1 to 3.9 µg/mL. The “increase in relative MIC values” (in [2] (setting [9]); in the experiment on VRE (strain D) (setting [9]); with MRSA (strain C) (setting [9]); in [4] (setting [9])) was “one-fold” each time. For the same compound, the “development of resistance (passages after which resistance developed)” value (in [2]; in the experiment on VRE (strain D); with MRSA (strain C); in experiment [4]) was “did not develop resistance” in each case. In addition, the “antifungal activity in words” value in experiment [5] (against all fungal strains tested) was “excellent antifungal activities”. For the same compound, in the experiment on C. albicans ATCC 10231 [6] (after 13 passages, sub-MIC drug concentrations), the “shift in relative MIC values” is on record as 2 fold. The “development of drug resistance” value in the experiment with C. albicans ATCC 10231 [6] (repeated treatments with sub-MIC drug concentrations) is on record as “unable to develop drug resistance”. In addition, the “intracellular ROS production” value with C. albicans ATCC 10231 [7] (at 1× and 2× MIC values) is “significantly increased intracellular ROS production”.
For `NCC[C@H](O)C(=O)N[C@@H]1C[C@H](N)[C@@H](O[C@H]2O[C@H](CN)[C@@H](O)[C@H](O)[C@H]2O)[C@H](O)[C@H]1O[C@H]1O[C@H](CO)[C@@H](O)[C@H](N)[C@H]1O` [AMK, amikacin, reference compound], the MIC is 3 to 12.2 µg/mL in the experiment on B. subtilis 168 (converted from μM); 3.9 to 15.6 µM with B. subtilis 168 (range 0.5 to 500 μM); 24.5 µg/mL in the experiment with E. coli MC1061 (converted from μM); 31.3 µM with E. coli MC1061 (range 0.5 to 500 μM); 12.2 µg/mL in the experiment on M. smegmatis MC2-155 (converted from μM); 15.6 µM with M. smegmatis MC2-155 (range 0.5 to 500 μM). Moreover, the MIC in the experiment with P. aeruginosa ATCC 27853 (converted from μM) is 48.9 µg/mL; with P. aeruginosa ATCC 27853 (range 0.5 to 500 μM) it was 62.5 µM; in the experiment on S. enterica ATCC 14028 (converted from μM), 3 to 6.1 µg/mL; with S. enterica ATCC 14028 (range 0.5 to 500 μM), 3.9 to 7.8 µM; in experiment [1] (range 0.5 to 500 μM) it was 3.9 µM; in the experiment with VRE (converted from μM), 97.7 µg/mL. Moreover, the MIC in the experiment with VRE (range 0.5 to 500 μM) was 125 µM; in the experiment with E. cloacae ATCC 13047 (converted from μM), 48.9 µg/mL; in the experiment with E. cloacae ATCC 13047 (range 0.5 to 500 μM), 62.5 µM; in experiment [8], 3.9 to 125 µM (≈ 2.28 to 73.2 µg/mL). Further, the “development of resistance (passages after which resistance developed)” value turned out to be 5 passages in experiment [2], 3 passages with VRE (strain D), 12 passages in the experiment with MRSA (strain C) and 15 passages in experiment [4].
For the compound `OO` [Compound H2O2, H2O2, reference compound], the “intracellular ROS production” value in the experiment with C. albicans ATCC 10231 [7] (positive control at 1 mM) is given as “induced ROS production”.
